The test has as its target T1, α7 nicotinic acetylcholine receptor (α7nAChR) (Mus musculus, UniProt P49582).
T1 construct: gene Chrna7; native receptor in hippocampal CA1 pyramidal cells (slices)
The experiment in a line: whole-cell patch-clamp of ACh-evoked currents in mouse hippocampal slices, dose-response. For orientation: The patch-clamp technique gives a direct electrical read-out from membranes.

T1 sequence (P49582 23-502): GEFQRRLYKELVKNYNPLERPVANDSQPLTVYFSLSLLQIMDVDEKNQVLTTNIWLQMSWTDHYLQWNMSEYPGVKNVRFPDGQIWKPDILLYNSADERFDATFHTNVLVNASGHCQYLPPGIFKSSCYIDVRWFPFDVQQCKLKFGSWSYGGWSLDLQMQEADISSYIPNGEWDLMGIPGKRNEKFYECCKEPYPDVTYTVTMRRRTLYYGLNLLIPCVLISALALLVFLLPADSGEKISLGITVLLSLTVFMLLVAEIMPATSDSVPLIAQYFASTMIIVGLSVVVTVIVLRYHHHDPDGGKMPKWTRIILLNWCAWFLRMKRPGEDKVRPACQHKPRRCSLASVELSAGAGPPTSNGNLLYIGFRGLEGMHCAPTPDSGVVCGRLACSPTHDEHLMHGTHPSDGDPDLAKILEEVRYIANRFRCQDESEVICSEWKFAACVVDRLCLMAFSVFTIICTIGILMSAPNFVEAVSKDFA

Usually EC50 stands for the concentration at which the effect is half-maximal. High values mean weaker potency, low ones greater potency. Take `CC(=O)OCC[N+](C)(C)C` [ACh, acetylcholine]: a half-maximal response (EC50) required 117.1 ± 0.94 µM.
